Reference: the supplement of paper PMC11451515

Test system: P12-Ichikawa
Test: cell viability relative to DMSO control; higher = less cytotoxic
Conditions: 48 h
Method in brief: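 Library compounds in DMSO were pin-dosed into 1536-well plates (5 μl) holding NOMO1 or SEM (500 cells/well) or P12-Ichikawa (1000 cells/well) leukemia cells, across an 11-point threefold series of 47 μM to 0.79 nM. Each cell line had been adapted for at least four passages in each medium. CellTiter-Glo One luminescence was read after 48 h at 37°C. Viability is the per-plate percentage relative to DMSO wells, with cell-free wells as background.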

[1] = HPLM + 10% dialyzed FBS, 0.000781 µM
[2] = HPLM + 10% dialyzed FBS, 0.00234 µM
[3] = HPLM + 10% dialyzed FBS, 0.00702 µM
[4] = HPLM + 10% dialyzed FBS, 0.0211 µM
[5] = HPLM + 10% dialyzed FBS, 0.0632 µM
[6] = HPLM + 10% dialyzed FBS, 0.19 µM
[7] = HPLM + 10% dialyzed FBS, 0.569 µM
[8] = HPLM + 10% dialyzed FBS, 1.71 µM
[9] = HPLM + 10% dialyzed FBS, 5.12 µM
[10] = HPLM + 10% dialyzed FBS, 15.4 µM
[11] = HPLM + 10% dialyzed FBS, 46.1 µM
[12] = RPMI 5 mM glucose + 10% FBS, 0.000781 µM
[13] = RPMI 5 mM glucose + 10% FBS, 0.00234 µM
[14] = RPMI 5 mM glucose + 10% FBS, 0.00702 µM
[15] = RPMI 5 mM glucose + 10% FBS, 0.0211 µM
[16] = RPMI 5 mM glucose + 10% FBS, 0.0632 µM
[17] = RPMI 5 mM glucose + 10% FBS, 0.19 µM
[18] = RPMI 5 mM glucose + 10% FBS, 0.569 µM
[19] = RPMI 5 mM glucose + 10% FBS, 1.71 µM
[20] = RPMI 5 mM glucose + 10% FBS, 5.12 µM
[21] = RPMI 5 mM glucose + 10% FBS, 15.4 µM
[22] = RPMI 5 mM glucose + 10% FBS, 46.1 µM
[23] = RPMI 5 mM glucose + 10% dialyzed FBS, 0.000781 µM
[24] = RPMI 5 mM glucose + 10% dialyzed FBS, 0.00234 µM
[25] = RPMI 5 mM glucose + 10% dialyzed FBS, 0.00702 µM
[26] = RPMI 5 mM glucose + 10% dialyzed FBS, 0.0211 µM
[27] = RPMI 5 mM glucose + 10% dialyzed FBS, 0.0632 µM
[28] = RPMI 5 mM glucose + 10% dialyzed FBS, 0.19 µM
[29] = RPMI 5 mM glucose + 10% dialyzed FBS, 0.569 µM
[30] = RPMI 5 mM glucose + 10% dialyzed FBS, 1.71 µM
[31] = RPMI 5 mM glucose + 10% dialyzed FBS, 5.12 µM
[32] = RPMI 5 mM glucose + 10% dialyzed FBS, 15.4 µM
[33] = RPMI 5 mM glucose + 10% dialyzed FBS, 46.1 µM

SMILES | cell viability [1] [%] | cell viability [2] [%] | cell viability [3] [%] | cell viability [4] [%] | cell viability [5] [%] | cell viability [6] [%] | cell viability [7] [%] | cell viability [8] [%] | cell viability [9] [%] | cell viability [10] [%] | cell viability [11] [%] | cell viability [12] [%] | cell viability [13] [%] | cell viability [14] [%] | cell viability [15] [%] | cell viability [16] [%] | cell viability [17] [%] | cell viability [18] [%] | cell viability [19] [%] | cell viability [20] [%] | cell viability [21] [%] | cell viability [22] [%] | cell viability [23] [%] | cell viability [24] [%] | cell viability [25] [%] | cell viability [26] [%] | cell viability [27] [%] | cell viability [28] [%] | cell viability [29] [%] | cell viability [30] [%] | cell viability [31] [%] | cell viability [32] [%] | cell viability [33] [%]
Cc1csc(-c2nnc(Nc3ccc(Oc4ncccc4-c4ccnc(N)n4)cc3)c3ccccc23)c1 | 107 | 111 | 104 | 15.1 | 16.6 | 14.6 | 19.1 | 23.2 | 20.1 | 18.7 | 22 | 104 | 116 | 106 | 22.3 | 20.1 | 16.7 | 20.3 | 26.5 | 26.4 | 24.3 | 24.9 | 117 | 109 | 108 | 27.8 | 24.8 | 27.1 | 34.4 | 39.9 | 43.5 | 39.6 | 38.1
CC(C)c1cc(C(C)C)c(CC(=O)N[S+](=O)([O-])Oc2c(C(C)C)cccc2C(C)C)c(C(C)C)c1 | 103 | 106 | 103 | 106 | 103 | 104 | 104 | 103 | 101 | 97 | 89.7 | 105 | 102 | 104 | 96.8 | 102 | 96.9 | 109 | 96.8 | 102 | 97.6 | 76.9 | 99.5 | 108 | 105 | 105 | 110 | 101 | 98.3 | 90.1 | 99.1 | 89.2 | 87
Cc1coc2c1C(=O)C(=O)c1c-2ccc2c1CCCC2(C)C | 103 | 106 | 109 | 116 | 106 | 104 | 93 | 93.2 | 94 | 94.8 | 99.8 | 96.6 | 98.3 | 97.9 | 95.3 | 91 | 92.1 | 95.4 | 88.6 | 91.5 | 89.4 | 87.9 | 95.5 | 97.8 | 103 | 93.7 | 96.5 | 87.7 | 87.3 | 87.8 | 83.4 | 84.7 | 92.2
O=C(CCCN1CCN(c2ccc(F)cc2)CC1)NC1c2ccccc2CSc2ccccc21 (stereo not given) | 120 | 125 | 123 | 119 | 121 | 120 | 117 | 119 | 109 | 102 | 71.4 | 126 | 121 | 119 | 126 | 131 | 123 | 136 | 119 | 97.4 | 83.5 | 55.1 | 123 | 122 | 122 | 120 | 120 | 115 | 121 | 110 | 100 | 77.7 | 59
C=C[C@H]1CN2CCC1C[C@@H]2C(O)c1ccnc2ccc(OC)cc12 (stereo not given in full) | 112 | 131 | 117 | 119 | 127 | 122 | 123 | 133 | 123 | 122 | 103 |  |  |  |  |  |  |  |  |  |  |  | 125 | 121 | 120 | 128 | 145 | 128 | 136 | 133 | 123 | 135 | 124
Nc1c2c(nc3ccccc13)CCCC2 | 119 | 119 | 112 | 111 | 118 | 120 | 107 | 68.4 | 109 | 110 | 99 | 118 | 124 | 128 | 117 | 120 | 115 | 124 | 64.9 | 109 | 113 | 89.2 | 106 | 117 | 119 | 118 | 86.6 | 109 | 117 | 84.3 | 102 | 102 | 79.1
O=C(O)CCNC(=O)c1ccc(/N=N/c2ccc(O)c(C(=O)O)c2)cc1 | 115 | 116 | 114 | 114 | 110 | 120 | 109 | 115 | 112 | 110 | 113 |  |  |  |  |  |  |  |  |  |  |  |  |  |  |  |  |  |  |  |  |  | 
O=C(O)c1cccnc1Nc1cccc(C(F)(F)F)c1 | 112 | 111 | 111 | 118 | 119 | 128 | 112 | 131 | 129 | 129 | 124 | 115 | 117 | 113 | 120 | 124 | 143 | 129 | 132 | 141 | 138 | 108 | 104 | 108 | 115 | 112 | 112 | 119 | 115 | 113 | 121 | 131 | 117
CN1\C=N/C2=CC=C(NC3=CC(=CC=C3C)NC(=O)C4=CC(=CC=C4)C(C)(C)C#N)C=C2C1=O | 97.1 | 96.9 | 101 | 97.8 | 101 | 94.6 | 87 | 87.4 | 68.5 | 69.3 | 63.2 | 90.4 | 98.7 | 99 | 95 | 96.7 | 93 | 83.6 | 81.3 | 59.6 | 58.4 | 44.4 | 97.5 | 104 | 94 | 102 | 99.5 | 98.7 | 93.3 | 84.8 | 73.4 | 64.1 | 48.1
N[C@@H]1CONC1=O | 97.7 | 108 | 101 | 105 | 109 | 106 | 109 | 112 | 114 | 100 | 110 | 95.6 | 95.6 | 106 | 102 | 111 | 102 | 104 | 95.5 | 102 | 97.2 | 103 | 92.6 | 95.9 | 101 | 101 | 105 | 106 | 98.7 | 102 | 96.5 | 101 | 103
COc1ccc2c(c1)[C@]13CCCCC1C(C2)N(C)CC3 (stereo not given in full) | 107 | 118 | 114 | 116 | 116 | 122 | 124 | 126 | 113 | 127 | 117 | 111 | 127 | 119 | 124 | 128 | 129 | 134 | 118 | 133 | 128 | 107 | 106 | 112 | 119 | 120 | 121 | 117 | 126 | 122 | 119 | 122 | 20.9
CCCCN(CCCC)CC(O)c1cc(Cl)cc2c1-c1ccc(Cl)cc1/C2=C/c1ccc(Cl)cc1 (stereo not given) | 97.6 | 99.8 | 114 | 107 | 107 | 111 | 109 | 117 | 104 | 121 | 117 | 98.6 | 102 | 107 | 98 | 102 | 117 | 104 | 113 | 97.5 | 109 | 82.5 | 83.9 | 99.7 | 101 | 107 | 96.9 | 98.1 | 97.5 | 103 | 104 | 107 | 107
CN1CCCN(CC1)C2=CC=C3C(=O)\C(=C/4SC5=C(C=CC=C5)N4C3=N2)C(=O)NCC6=CN=C(C)C=N6 | 114 | 108 | 119 | 108 | 110 | 113 | 108 | 103 | 92.3 | 92.4 | 84.6 | 113 | 124 | 122 | 109 | 117 | 108 | 95.9 | 101 | 83.3 | 81.8 | 54.1 | 103 | 114 | 117 | 108 | 107 | 104 | 94.5 | 92.1 | 85.8 | 82.2 | 59.6
COc1c(C)c2c(c(O)c1C/C=C(\C)CCC(=O)O)C(=O)OC2 | 108 | 107 | 111 | 109 | 113 | 109 | 103 | 99.1 | 90.5 | 50.2 | 38.2 | 108 | 110 | 106 | 104 | 112 | 104 | 104 | 85 | 60.9 | 36.7 | 23 | 103 | 97.8 | 95.3 | 100 | 104 | 97.6 | 103 | 82 | 64 | 39.7 | 28.7
Nc1ccc([S+](=O)([O-])Nc2ccnn2-c2ccccc2)cc1 | 105 | 103 | 103 | 109 | 111 | 102 | 105 | 106 | 105 | 110 | 107 | 95.9 | 101 | 98.3 | 96 | 108 | 115 | 108 | 106 | 100 | 109 | 107 | 86.1 | 98.7 | 97.7 | 92.9 | 105 | 99 | 98.2 | 112 | 103 | 106 | 96.7
CCCNC(=O)Nc1ccc(Oc2ncnc3cc(OC)c(OC)cc23)cc1Cl | 88.2 | 97.6 | 93.4 | 99.9 | 98.7 | 97.3 | 89 | 76.1 | 88.1 | 95.6 | 84.2 | 93.9 | 97.3 | 97.2 | 99.8 | 94.7 | 96.3 | 87.6 | 82.8 | 85.2 | 81.3 | 80.4 | 98.7 | 99.5 | 94.8 | 99.7 | 92 | 91.1 | 91.4 | 93.5 | 86.8 | 86.5 | 75.7
